Experimental data from the SangsterLogP compilation.
Each block holds one compound with its values, some of them ahead of it.

Experiments:
[1] = method code SF-AS, from KuchaÅ™, M.; Rejholec, V.; Miller, V. (1985). Chromatographically determined lipophilicity and intramolecular interactions of bioactive compounds. Pharmacochemistry Library, 8, 321-331.; details: pH 3.4
[2] = method code SF-GLC, from DOI: 10.1007/bf00224496
[3] = method code SF-HPLC, from PMID: 1515051; details: pH 6.0
[4] = not given; remark: listed apart in the source
[5] = not given; remark: listed apart in the source
[6] = method code SF-HPLC, from DOI: 10.1080/01483919108049396; details: pH 7.0
[7] = method code SF-AS, from PMID: 3699148; details: pH 7.4
[8] = method code SF-AS, from DOI: 10.1021/jm00075a005, PMID: 8246220; details: pH 7.4
[9] = method code SF-AS, from DOI: 10.1021/jm00047a013, PMID: 7932583
[10] = not given; remark: listed apart in the source
[11] = method code SF-AS, from DOI: 10.1021/jm00163a043, PMID: 2153206; details: pH 7.0
[12] = method code SF-CR, from DOI: 10.1248/cpb.21.2417, PMID: 4779830; details: pH 6.0
[13] = method code SF-AS, from DOI: 10.1007/bf01067967, PMID: 3820093; details: pH 7.5
[14] = method code SF-AS, from DOI: 10.1111/j.1476-5381.1988.tb11523.x, PMID: 2900037
[15] = method code SF-HPLC, from DOI: 10.1016/0006-2952(84)90322-8, PMID: 6704182
[16] = not given; remark: listed apart in the source
[17] = method code SF-AS, from DOI: 10.1002/jps.2600650731; details: pH 11.5
[18] = method code SF-RC, from DOI: 10.1016/s0969-8051(98)00096-1, PMID: 10100217; details: pH 7.4
[19] = method code SF-NMR, from DOI: 10.1021/jm00157a023, PMID: 3806574
[20] = method code SF-CR+DM, from DOI: 10.1021/ja01573a017; details: pH 6.5
[21] = method code SF-HPLC, from DOI: 10.1021/jm00112a026, PMID: 1875345; details: pH 7.4
[22] = method code SF-AS, from DOI: 10.1002/jps.2600790421, PMID: 2352153
[23] = method code SF-AS, from DOI: 10.1016/s0021-9673(00)82600-x
[24] = method code SF-AS, from DOI: 10.1002/ddr.430140205; details: pH 7.4
[25] = method code SF-GLC, from DOI: 10.1021/je970069v
[26] = method code SF-EPR, from DOI: 10.1007/bf01870789, PMID: 2549250; details: pH 12.0
[27] = method code SF-AS, from DOI: 10.1007/bf00165040, PMID: 3033523; details: pH 7.4

SMILES: COc1ccc(C(=O)CCCC(=O)O)cc1
logD [1]: 1.63

SMILES: CC1(C)C2CC3C(C2)C31C
logP [2]: 4.85

SMILES: CCC(O)(C(=O)O)c1ccccc1 (stereo not drawn)
logD [1]: 1.37

SMILES: O=C1CNC(=O)C(Cc2ccccc2)N1 (stereo not drawn)
logP [4]: 0.25

SMILES: C=C(C)C(=O)OCC(O)COc1ccc(C(C)(C)c2ccc(OCC(O)COC(=O)C(=C)C)cc2)cc1 (stereo not drawn)
logP [5]: 3.34

SMILES: C=C(C)C(=O)OCc1ccccc1
logP [5]: 2.16

SMILES: COc1ccc(CON2C(=O)CC3(CCCC3)C2=O)cc1
logD [8]: 2.23

SMILES: [cH:1]1[c:2]([Cl:3])[c:4]2[cH:5][cH:6][cH:7][c:8]([Cl:9])[c:10]2[cH:11][cH:12]1
logP [10]: 4.67

SMILES: CN1C=CC=CC1NS(=O)(=O)c1ccc(N)cc1 (stereo not drawn)
logD [12]: -0.58

SMILES: COC(=O)n1c(-c2cscn2)nc2ccccc21
logD [3]: 2.05

SMILES: CNC(=C[N+](=O)[O-])NCCSCc1nccs1
logD ([14]; pH 9.0): -0.15

SMILES: CC(=O)Nc1ccn([C@@H]2O[C@H](COC(C)=O)[C@@H](OC(C)=O)[C@@H]2OC(C)=O)c(=O)n1
logP [15]: -0.16

SMILES: CC1(C)C(C=C(Cl)Cl)C1C(=O)OCc1cccc(Oc2ccccc2)c1 (stereo not drawn)
logP [16]: 5.85

SMILES: c1ccc2[nH]c(-c3cscn3)nc2c1
logD [3]: 2.47

SMILES: C=C1C2CCC(C2)C1(C)C (stereo not drawn)
logP [2]: 4.56

SMILES: O=C(Nc1ccn([C@H]2C[C@H](O)[C@@H](CO)O2)c(=O)n1)c1ccccc1
logD [6]: 0.67

SMILES: S=P(N1CCOCCOCCOCCOCCOCC1)(N1CC1)N1CC1
logP [19]: 0.75

SMILES: CNC(=NC#N)NCCSCc1csc(N=C(N)N)n1
logD ([14]; pH 9.0): 0.6

SMILES: COC1=C(OC)C(=O)C(C)=CC1=O
logD [18]: 0.73

SMILES: OC(CN1C2CCCC21)Cn1ccnc1 (stereo not drawn)
logD [21]: 0.37

SMILES: CON(C)C(=O)Nc1ccc(Cl)cc1
logP [16]: 2.16

SMILES: Cc1ccc(CCCC(N)=O)c(O)c1
logD [20]: 2.26

SMILES: CC(C)[C@@H](C(=O)N[C@@H](Cc1ccccc1)C(=O)NC(=O)NCCCl)N(CCCl)N=O
logP [22]: 3.47

SMILES: OC(CN1C2CCCCCCC21)Cn1ccnc1 (stereo not drawn)
logD [21]: 1.84

SMILES: CC(=O)OC[C@H]1O[C@@H](n2ccc(N)nc2=O)[C@@H](OC(C)=O)[C@@H]1OC(C)=O
logP [15]: -0.8

SMILES: Nc1cnn(-c2cccc(C(F)(F)F)c2)c(=O)c1Cl
logP [23]: 2.41

SMILES: CCOP(=S)(OCC)Oc1ccc([N+](=O)[O-])cc1
logP [16]: 3.45

SMILES: CCCCCC/N=C(N)/N=C(\N)Nc1ccc(Cl)cc1
logD [17]: 1.85

SMILES: CCOCCOCCOP(=S)(N1CC1(C)C)N1CC1(C)C (stereo not drawn)
logP [19]: 0.47

SMILES: Clc1cccc2ccccc12
logP [10]: 3.9

SMILES: CC(C)Cn1c(=O)n(C)c(=O)c2nc[nH]c21
logD [24]: 1.22

SMILES: Cc1cn([C@H]2C=C[C@@H](CO)O2)c(=O)[nH]c1=S
logD [11]: 0.09

SMILES: Oc1c(Cl)cc(Cl)c2ccccc12
logD [20]: 4.76

SMILES: CCON1C(=O)CC2(CCCC2)C1=O
logD [8]: 1.26

SMILES: NC(=O)c1ccccc1NCCO
logD [7]: -0.05

SMILES: CN(c1nccs1)S(=O)(=O)c1ccc(N)cc1
logD [12]: 1.63

SMILES: CNC1CC(C)(C)N(O)C(C)(C)C1
logD [26]: 0.84

SMILES: O=NN(CCCl)C(CC(=O)NCCCl)C(=O)NC(=O)NCCCl (stereo not drawn)
logP [22]: 3.15

SMILES: Cc1c(Cl)cc(C(C)C)c(Cl)c1Cl
logP [25]: 6.2

SMILES: CCOCCOCCOP(=S)(N1CC1)N1CC1
logP [19]: 0.38

SMILES: CCCCOc1ccc(CC(=O)O)cc1
logP: 2.94

SMILES: Nc1ncnc2c1nc(Sc1ccc(Cl)cc1)n2[C@@H]1O[C@@H]2COP(=O)(O)O[C@H]2[C@H]1O
logD [27]: -0.98

SMILES: CN(CCO)C1CC(C)(C)N(O)C(C)(C)C1
logD [26]: 0.53

SMILES: OC(CN1C2CCc3ccccc3C21)Cn1ccnc1 (stereo not drawn)
logD [21]: 2.15

SMILES: O=C1CC2(CCCC2)C(=O)N1Oc1ccccc1
logD [8]: 1.77

SMILES: Nc1cc(-c2ccncc2)c[nH]c1=O
logD [24]: 0.54

SMILES: CCC/N=C(N)/N=C(\N)Nc1ccc(Cl)cc1
logD [17]: 2.63

SMILES: CC1(C)CC(N)CC(C)(C)N1O
logD [26]: 0.56

SMILES: Nc1ccc2ccccc2c1
logD [13]: 2.4

SMILES: O=NN(CCCl)C(Cc1ccccc1)C(=O)NC(=O)NCCCl (stereo not drawn)
logP [22]: 3.25

SMILES: CNc1cnn(-c2ccccc2)c(=O)c1Cl
logP [23]: 1.19

The next lines start with the values.

logP: 2.09
SMILES: CC(C)C(C(=O)O)c1ccc([N+](=O)[O-])cc1 (stereo not drawn)

logD [3]: 2.98
SMILES: CCCOC(=O)n1c(-c2cscn2)nc2ccccc21

logD [6]: -1.71
SMILES: O=c1[nH]cnc2c1ncn2[C@H]1C[C@H](O)[C@@H](CO)O1

logD [7]: 1.26
SMILES: NC(=O)c1cc(Cl)ccc1NCCO

logP [9]: 0.71
SMILES: CO[C@H]1N([C@H]2C[C@H](F)[C@@H](CO)O2)C(=O)NC(=O)[C@]1(C)Cl

logD [11]: -0.28
SMILES: O=c1[nH]c(=S)ccn1[C@H]1C=C[C@@H](CO)O1

logD [6]: -0.29
SMILES: Nc1ncnc2c1ncn2C1CCC(CO)O1 (stereo not drawn)

logP [10]: 4.56
SMILES: Clc1ccc2cccc(Cl)c2c1

logD [13]: 2.31
SMILES: CC(C)c1ccc(N)cc1

logP [2]: 4.63
SMILES: C=C1CCC2(C(C)C)CC12 (stereo not drawn)

logD [17]: 1.58
SMILES: CN(C(=N)N)/C(N)=N/c1ccc(Cl)cc1

logD [13]: 3.05
SMILES: CCCCc1ccc(N)cc1

logP [9]: 0.6
SMILES: CO[C@@H]1N([C@H]2C[C@H](F)[C@@H](CO)O2)C(=O)NC(=O)[C@@]1(C)I

logP [15]: -1.81
SMILES: O=c1ccn(C2OC(CO)C(O)C2O)c(=O)[nH]1 (stereo not drawn)

logD [18]: 2.55
SMILES: COc1c(O)c(C)c(CCCCCCCCCCO)c(O)c1OC

logD [12]: -0.07
SMILES: CN1C=CSC1NS(=O)(=O)c1ccc(N)cc1 (stereo not drawn)

logD [20]: 3.5
SMILES: O=[N+]([O-])c1ccc2c(O)cccc2c1

logP [5]: 2.16
SMILES: C=C(C)C(=O)OCCC(C)OC(=O)C(=C)C (stereo not drawn)

logD [18]: 2.96
SMILES: COC1=C(OC)C(=O)C(CCCCCCCCCCO)=C(C)C1=O

logD [7]: 3.15
SMILES: Cc1ccc(SCCNc2ccccc2C(N)=O)cc1

logP [4]: 1.21
SMILES: O=C1NC(Cc2c[nH]c3ccccc23)C(=O)NC1Cc1ccc(O)cc1 (stereo not drawn)

logP [25]: 5.6
SMILES: Cc1cc(Cl)c(C(C)C)cc1Cl

logD ([14]; pH 7.5): 3.97
SMILES: O=C(NCCCOc1cccc(N2CCCCC2)c1)c1ccccc1

logD [1]: 1.9
SMILES: CCc1ccc(C(C)(O)C(=O)O)cc1 (stereo not drawn)

logD [27]: -2.03
SMILES: CSc1nc2c(N)ncnc2n1C1OC2COP(=O)(O)OC2C1O (stereo not drawn)

logP: 2.04
SMILES: Cc1ccc(CC(=O)O)cc1

logD [24]: 0.08
SMILES: CCc1[nH]c(=O)[nH]c1C(=O)c1ccncc1

logP [4]: 2.08
SMILES: O=C1NC(Cc2ccccc2)C(=O)NC1Cc1ccccc1 (stereo not drawn)

logD [27]: -1.05
SMILES: CC(C)C(C)Sc1nc2c(N)ncnc2n1C1OC2COP(=O)(O)OC2C1O (stereo not drawn)

logP [9]: 0.54
SMILES: CO[C@@H]1N([C@H]2C[C@H](F)[C@@H](CO)O2)C(=O)NC(=O)[C@@]1(C)Br

logP [23]: 2.67
SMILES: CN(C)c1cnn(-c2cccc(C(F)(F)F)c2)c(=O)c1Cl

logP [25]: 6.8
SMILES: Cc1c(Cl)c(Cl)c(C(C)C)c(Cl)c1Cl
